Results as given in patent publication US8492582B2, “N-acyl anthranilic acid derivative or salt thereof” (Toyama Chemical Co., Ltd., priority 2009, dated 2013).
Counter-ions that a name gives are not always drawn. Like-named read-outs stand apart in the source and are kept apart here.

Assays:
[1] = target: T1, CYP2C9 (Homo sapiens, UniProt P11712); assay: Hepatic drug-metabolizing enzyme inhibitory activity in humans (CYP2C9); format: in vitro ADME; conditions: pooled human liver microsome, tolbutamide 200 μmol/L, 37° C., 30 minutes; 80a as free base; read-out: IC50 (CYP2C9, tolbutamide metabolite)
T1 construct: Pooled human liver microsome was used, and tolbutamide was used as a substrate; from tissue; host or cells: pooled human liver microsomes
Experimental: As test compounds, the compounds of Examples 80a, 83a, 108a, 117a, 123a, 128a, 139a, 142a, and 143a were used. Note that the compound of Example 80a was used in the form of free base.
Pooled human liver microsome was used, and tolbutamide was used as a substrate. The reaction was performed in a phosphate buffer (100 mmol/L, pH 7.4), and the final concentrations in the reaction system were adjusted to 0.5 mg/mL of human liver microsome protein, 200 μmol/L of the substrate, 1.55 mmol/L of oxidized nicotinamide adenine dinucleotide phosphate (NADP+), 3.3 mmol/L of glucose-6-phosphate, 3.3 mmol/L of magnesium chloride, and 0.4 Units/mL of glucose-6-phosphate dehydrogenase (G6PDH). The final concentration of each compound in the reaction solution was adjusted to 0.08 to 50 μg/mL. These reaction solutions were each subjected to reaction at 37° C. for 30 minutes. The reaction was terminated with an equal amount of acetonitrile. After centrifugation, the concentration of a tolbutamide metabolite in the supernatant was quantitatively measured by LC-MS/MS. The inhibitory activity was determined as IC50. As a positive control, sulfaphenazole was used.

[2] = system: type I collagen α1 chain mRNA in WI-38 cells; assay: Type I collagen α1 chain mRNA expression inhibition test; format: cell-based; conditions: Homo sapiens, read-out: Inhibition rate (%) at 10 μmol/L
Experimental: Human embryonic lung fibroblast cell line WI-38 cells were suspended in a Dulbecco's modified Eagle's medium containing 10% fetal calf serum, and 7.5×10^4 cells were inoculated on a 12-well plate and cultured for 3 days, or 1.5×10^5 cells were inoculated and cultured for 2 days. After the growth of the cells to a subconfluent state, the culture medium was changed to a Dulbecco's modified Eagle's medium containing 0.4% fetal calf serum and 50 μg/mL ascorbic acid, and the cells were further cultured for 24 hours. Then, a test compound was added thereto, and, one hour later, TGF-β1 was added at a final concentration of 1 ng/mL. Twenty-four hours after the addition, the total RNA was extracted from the cells using an RNA extraction kit (SV Total RNA Isolation System, Promega), and cDNA was synthesized using a reverse transcriptase (ReverTra Ace, TOYOBO). The expression level of the type I collagen al chain mRNA was analyzed with a real-time PCR instrument (ABI PRISM 7700 Sequence Detection System, Applied Biosystems) by a real-time PCR method using a premix reagent of real-time PCR (SYBR Premix Ex Taq or SYBR Premix Ex Taq II (Perfect Real Time), TaKaRa). A PCR reaction was conducted with diluted cDNA as a template, using primers specific for a type I collagen α1 chain gene or a GAPDH gene as an internal standard, and the reaction product was measured. The PCR reaction was conducted by incubation at 95° C. for 10 seconds and 45 cycles of denaturation at 95° C. for 5 seconds and annealing/extension at 60° C. for 30 seconds. The expression level of the type I collagen α1 chain mRNA was corrected with GAPDH and was expressed as a relative value when the expression level obtained in the absence of the test compound was defined as 100%.

[3] = system: bleomycin-induced lung fibrosis (lung collagen amount); assay: Mouse bleomycin-induced lung fibrosis; format: in vivo, mice C57BL/6N; conditions: po, 672 h, read-out: lung collagen amount low compared with that of the control group
Experimental: The test was conducted using 8- to 10.5-week-old male mice C57BL/6N (Charles River Laboratories Japan, Inc.). Bleomycin (Nippon Kayaku Co., Ltd.) was dissolved in physiological saline in a concentration of 1.0 or 1.5 mg/mL, and 2 μL/g thereof was intranasally administered to each mouse to evoke lung fibrosis. A test compound was dissolved or suspended in a 10% aqueous solution of polyoxyethylene castor oil (trade name: Cremophor EL) or in water and orally administered in an amount of 10 mg/kg twice a day from the 14th to the 28th day from the evocation. In a control group, a 10% aqueous solution of polyoxyethylene castor oil or water was administered in the same manner. The lung was extracted from each mouse on the 28th day from the evocation, and collagen was quantitatively measured. The extracted lung was homogenized in a 0.5 mol/L aqueous solution of acetic acid containing a protease inhibitor cocktail (Complete, EDTA-free, Roche Diagnostics) in an amount of one tablet/50 mL, and water-soluble collagen was extracted in the presence of 10 mg/mL pepsin (Sigma) overnight. The amount of collagen was measured using a kit (Sircol Soluble Collagen assay kit, Biocolor).
The inhibition rate was determined by the following expression: Inhibition rate (%)=[1−(lung collagen amount in test compound administration group)/(lung collagen amount in control group)]×100

[4] = system: SD-line male rats; assay: Repeated administration toxicity test in rat (oral administration, two weeks); format: in vivo; conditions: 1000 mg/kg, 5 rats per group, 80a and 1b as sodium salts
Experimental: As test compounds, the compounds of Examples 80a, 122a, 139a, 1b, 16b, and 19b were used. Note that the compounds of Examples 80a and 1b were used in the forms of sodium salts.
Each test compound was suspended in a 0.5% methylcellulose solution or distilled water to prepare a 100 mg/mL suspension. The suspension of the test compound was orally administered (10 mL/kg, test compound: 1000 mg/kg) to SD-line male rats (6-week-old, 5 rats for each group).

[5] = side effect, clinical, Non Patent Document 3; cited from earlier work
[6] = 10 μmol/L test compound, WI-38 cells, TGF-β1 1 ng/mL, 24 hours, Table 4a
[7] = 10 μmol/L test compound, WI-38 cells, TGF-β1 1 ng/mL, 24 hours, Table 4b
[8] = orally 10 mg/kg twice a day, 14th to 28th day, lung on 28th day, 23a, 1b, 7c as sodium salts, 122a, 143a as hydrochloric acid salts

T1 sequence (P11712 whole entry): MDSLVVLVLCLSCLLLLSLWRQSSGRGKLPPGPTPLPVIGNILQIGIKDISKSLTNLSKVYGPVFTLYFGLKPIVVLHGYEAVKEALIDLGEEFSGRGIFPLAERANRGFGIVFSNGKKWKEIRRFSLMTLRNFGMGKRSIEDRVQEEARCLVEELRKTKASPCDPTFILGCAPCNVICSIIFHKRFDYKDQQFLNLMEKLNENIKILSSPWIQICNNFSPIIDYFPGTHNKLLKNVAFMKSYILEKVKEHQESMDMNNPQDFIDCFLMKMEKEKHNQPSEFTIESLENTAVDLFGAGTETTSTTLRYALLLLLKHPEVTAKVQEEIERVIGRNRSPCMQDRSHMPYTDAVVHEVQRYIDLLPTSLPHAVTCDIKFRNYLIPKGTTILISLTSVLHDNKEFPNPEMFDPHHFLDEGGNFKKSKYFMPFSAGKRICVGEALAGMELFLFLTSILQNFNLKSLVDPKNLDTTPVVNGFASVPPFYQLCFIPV

For CN(C)C1CCN(Cc2ccc(O)c(C(=O)Nc3cc(-c4ccccc4)ccc3C(=O)O)c2)CC1 [Example 128a, 2-(5-((4-(Dimethylamino)piperidin-1-yl)methyl)-2-hydroxybenzamido)-4-phenylbenzoic acid dimethanesulfonate], the IC50 [1] was > 106 µM.

For CN1CCC(Oc2ccc(O)c(C(=O)Nc3cc(-c4ccccc4)ccc3C(=O)O)c2)CC1 [Example 108a, 2-(2-hydroxy-5-((1-methylpiperidin-4-yl)oxy)benzamido)-4-phenylbenzoic acid hydrochloride], the inhibition at 10 µM [2, 6] was 94%, the inhibition in vivo at 10 mg/kg [3] was ≥ 30% and the IC50 [1] was > 112 µM.

In the case of O=C(Nc1cc(-c2ccco2)ccc1C(=O)[O-])c1cncc(-c2ccccc2)c1.[Na+] [19b, sodium 4-(furan-2-yl)-2-(5-phenylpyridine-3-carboxamido)benzoate], the inhibition at 10 µM [2, 7] is reported as 90%, the “survival on the 14th day from the administration” value (“survival on the 14th day” for short) [4] is reported as “all rats survived” and the inhibition in vivo at 10 mg/kg [3, 8] is reported as ≥ 30%.

For CN1CCN(Cc2ccc(O)c(C(=O)Nc3cc(-c4ccccc4)ccc3C(=O)O)c2)CC1 [Example 122a, 2-(2-hydroxy-5-((4-methylpiperazin-1-yl)methyl)benzamido)-4-phenylbenzoic acid dimethanesulfonate], the inhibition at 10 µM [2, 6] was 88%, the “survival on the 14th day” value [4] was “all rats survived” and the inhibition in vivo at 10 mg/kg [3, 8] was ≥ 30%.

For O=C(Nc1cc(-c2ccccc2)ccc1C(=O)O)c1cc(N2CCCCC2)ccc1O [Example 80a, 2-(2-hydroxy-5-(piperidin-1-yl)benzamido)-4-phenylbenzoic acid hydrochloride], the inhibition at 10 µM ([2]; WI-38, 24 h) was 95%, the “survival on the 14th day” value [4] was “all rats survived” and the inhibition in vivo at 10 mg/kg [3] was ≥ 30%. For the same molecule, the IC50 [1] was > 120 µM.

In the case of CCN1CCN(Cc2ccc(O)c(C(=O)Nc3cc(-c4ccccc4)ccc3C(=O)O)c2)CC1 [Example 123a, 2-(5-((4-Ethylpiperazin-1-yl)methyl)-2-hydroxybenzamido)-4-phenylbenzoic acid dimethanesulfonate], the IC50 [1] is reported as > 76.7 µM.

For O=C(Nc1cc(-c2ccccc2)ccc1C(=O)O)c1cc(-c2cccnc2)ccc1O [Example 23a, 2-(2-hydroxy-5-(pyridin-3-yl)benzamido)-4-phenylbenzoic acid], the inhibition at 10 µM [2, 6] was 91% and the inhibition in vivo at 10 mg/kg [3, 8] was ≥ 30%.

With O=C(Nc1cc(-c2ccoc2)ccc1C(=O)O)c1cncc(-c2ccccc2)c1 [57b, Sodium 4-(furan-3-yl)-2-(5-phenylpyridine-3-carboxamido)benzoate] the inhibition at 10 µM ([2]; WI-38, 24 h) was 84% and the inhibition in vivo at 10 mg/kg [3] was ≥ 30%.

For Cc1ccc(=O)n(-c2ccccc2)c1 [pirfenidone, Pirfenidone], the photosensitivity in subjects [5] is listed as 87.9%.

With O=C(Nc1cc(-c2ccccc2)ccc1C(=O)O)c1cncc(-c2ccccc2)c1 [1b, 4-phenyl-2-(5-phenylpyridine-3-carboxamido)benzoic acid] the inhibition at 10 µM [2, 7] was 72%, the “survival on the 14th day” value [4] was “all rats survived” and the inhibition in vivo at 10 mg/kg [3, 8] was ≥ 30%.

For O=C(Nc1cc(-c2ccccc2)ccc1C(=O)O)c1cc(N2CCOCC2)ccc1O [Example 83a, 2-(2-Hydroxy-5-(morpholin-4-yl)benzamido)-4-phenylbenzoic acid hydrochloride], the inhibition at 10 µM [2, 6] was 88%, the inhibition in vivo at 10 mg/kg [3, 8] was ≥ 30% and the IC50 [1] was > 110 µM.

In the case of CN1CCN(CCOc2ccc(O)c(C(=O)Nc3cc(-c4ccccc4)ccc3C(=O)O)c2)CC1 [Example 142a, 2-(2-hydroxy-5-(2-(4-methylpiperazin-1-yl)ethoxy)benzamido)-4-phenylbenzoic acid dimethanesulfonate], the inhibition at 10 µM [2, 6] is reported as 90% and the IC50 [1] is reported as > 105 µM.

In the case of CN1CCN(CCc2ccc(O)c(C(=O)Nc3cc(-c4ccccc4)ccc3C(=O)O)c2)CC1 [Example 117a, 2-(2-hydroxy-5-(2-(4-methylpiperazin-1-yl)ethyl)benzamido)-4-phenylbenzoic acid dimethanesulfonate], the inhibition at 10 µM [2, 6] is reported as 90% and the IC50 [1] is reported as > 109 µM.

With O=C(Nc1cc(-c2ccccc2)ccc1C(=O)O)c1cc(OCCN2CCOCC2)ccc1O [Example 139a, 2-(2-hydroxy-5-(2-(morpholin-4-yl)ethoxy)benzamido)-4-phenylbenzoic acid hydrochloride] the inhibition at 10 µM ([2]; WI-38, 24 h) was 85%, the “survival on the 14th day” value [4] was “all rats survived” and the IC50 [1] was > 108 µM.

In the case of CCNc1ccccc1-c1ccc(C(=O)[O-])c(NC(=O)c2cncc(-c3ccccc3)c2)c1.[Na+] [16b, sodium 4-(2-(ethylamino)phenyl)-2-(5-phenylpyridine-3-carboxamido)benzoate], the inhibition at 10 µM [2, 7] is reported as 84%, the “survival on the 14th day” value [4] is reported as “all rats survived” and the inhibition in vivo at 10 mg/kg [3, 8] is reported as ≥ 30%.

For CCN1CCN(CCOc2ccc(O)c(C(=O)Nc3cc(-c4ccccc4)ccc3C(=O)O)c2)CC1 [Example 143a, 2-(5-(2-(4-ethylpiperazin-1-yl)ethoxy)-2-hydroxybenzamido)-4-phenylbenzoic acid dimethanesulfonate], the inhibition at 10 µM [2, 6] was 89%, the inhibition in vivo at 10 mg/kg [3, 8] was ≥ 30% and the IC50 [1] was > 102 µM.

CN1CCCCC1c1ccc(O)c(C(=O)Nc2cc(-c3ccccc3)ccc2C(=O)O)c1 (stereo not drawn) [217a, 2-(2-hydroxy-5-(1-methylpiperidin-2-yl)benzamido)-4-phenylbenzoic acid] gave an inhibition at 10 µM [2, 6] of 91%.

In the case of CNC1CCN(Cc2ccc(O)c(C(=O)Nc3cc(-c4ccccc4)ccc3C(=O)O)c2)CC1 [Example 126a, 2-(2-Hydroxy-5-((4-(methylamino)piperidin-1-yl)methyl)benzamido)-4-phenylbenzoic acid dimethanesulfonate], the inhibition at 10 µM [2, 6] is reported as 79%.

With Cc1ccccc1-c1ccc(C(=O)O)c(NC(=O)c2cncc(-c3ccccc3)c2)c1 [32b, Sodium 4-(2-methylphenyl)-2-(5-phenylpyridine-3-carboxamido)benzoate] the inhibition at 10 µM [2, 7] was 81%.
